In ChEMBL document CHEMBL4411343, “Synthesis and biological evaluation of novel N-substituted nipecotic acid derivatives with a cis-alkene spacer as GABA uptake inhibitors” (Bioorg Med Chem, 2019):

Key:
[1] = biological target: Sodium- and chloride-dependent GABA transporter 2 (Mus musculus); assay: Inhibition of mouse GAT3 expressed in HEK293 cells assessed as reduction in [3H]GABA uptake preincubated for 25 mins followed by [3H]GABA addition and measured after 4 mins by microbeta liquid scintillation counting method
[2] = biological target: Sodium- and chloride-dependent betaine transporter (Mus musculus); assay: Inhibition of mouse GAT2 expressed in HEK293 cells assessed as reduction in [3H]GABA uptake preincubated for 25 mins followed by [3H]GABA addition and measured after 10 mins by microbeta liquid scintillation counting method
[3] = biological target: T1, Sodium- and chloride-dependent GABA transporter 1 (Mus musculus, UniProt P31648); assay: Displacement of NO711 from mouse GAT1 expressed in stable HEK293 cell membranes preincubated for 10 mins followed by NO711 addition and measured after 40 mins by LC-ESI-MS/MS analysis
[4] = biological target: T1, Sodium- and chloride-dependent GABA transporter 1; assay: Inhibition of mouse GAT1 expressed in HEK293 cells assessed as reduction in [3H]GABA uptake preincubated for 25 mins followed by [3H]GABA addition and measured after 4 mins by microbeta liquid scintillation counting method; format: cell-based
[5] = biological target: T2, GABA transporter 4 (Mus musculus, UniProt P31650); assay: Inhibition of mouse GAT4 expressed in HEK293 cells assessed as reduction in [3H]GABA uptake preincubated for 25 mins followed by [3H]GABA addition and measured after 4 mins by microbeta liquid scintillation counting method; format: cell-based
T2 sequence (P31650 whole entry): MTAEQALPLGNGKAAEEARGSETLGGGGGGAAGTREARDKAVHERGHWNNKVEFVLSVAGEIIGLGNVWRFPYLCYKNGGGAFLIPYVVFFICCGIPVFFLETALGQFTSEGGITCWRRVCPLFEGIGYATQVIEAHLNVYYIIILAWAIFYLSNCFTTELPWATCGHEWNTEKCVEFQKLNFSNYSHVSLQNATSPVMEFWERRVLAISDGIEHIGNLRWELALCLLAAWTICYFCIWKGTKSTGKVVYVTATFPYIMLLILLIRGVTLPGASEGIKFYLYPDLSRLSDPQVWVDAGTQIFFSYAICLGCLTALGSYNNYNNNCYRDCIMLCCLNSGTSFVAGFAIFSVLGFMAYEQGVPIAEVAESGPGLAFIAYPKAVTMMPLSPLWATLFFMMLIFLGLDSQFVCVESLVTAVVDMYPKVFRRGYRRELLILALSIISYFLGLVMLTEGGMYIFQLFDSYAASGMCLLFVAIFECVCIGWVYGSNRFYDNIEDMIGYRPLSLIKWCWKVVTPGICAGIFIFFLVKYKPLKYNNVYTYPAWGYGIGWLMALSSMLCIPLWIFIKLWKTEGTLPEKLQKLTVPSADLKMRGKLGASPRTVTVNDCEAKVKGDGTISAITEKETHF

[6] = test system: Sodium- and chloride-dependent GABA transporter 2 (Mus musculus); assay: Inhibition of mouse GAT3 expressed in HEK293 cells assessed as remaining [3H]GABA uptake at 100 uM preincubated for 25 mins followed by [3H]GABA addition and measured after 4 mins by liquid scintillation counting method relative to control
[7] = test system: Sodium- and chloride-dependent betaine transporter (Mus musculus); assay: Inhibition of mouse GAT2 expressed in HEK293 cells assessed as remaining [3H]GABA uptake at 100 uM preincubated for 25 mins followed by [3H]GABA addition and measured after 10 mins by liquid scintillation counting method relative to control
[8] = biological target: T1, Sodium- and chloride-dependent GABA transporter 1; assay: Inhibition of mouse GAT1 expressed in HEK293 cells assessed as remaining [3H]GABA uptake at 100 uM preincubated for 25 mins followed by [3H]GABA addition and measured after 4 mins by liquid scintillation counting method relative to control; format: cell-based; details: read-out: Activity
[9] = biological target: T1, Sodium- and chloride-dependent GABA transporter 1; assay: Displacement of NO711 from mouse GAT1 expressed in stable HEK293 cells assessed as remaining specific NO711 binding level preincubated at 100 uM for 10 mins followed by NO711 addition and measured after 40 mins by LC-ESI-MS/MS analysis; format: cell-based; details: read-out: Activity
[10] = biological target: T3, GABA transporter 4 (Mus musculus) (UniProt P31650); assay: Inhibition of mouse GAT4 expressed in HEK293 cells assessed as remaining [3H]GABA uptake at 100 uM preincubated for 25 mins followed by [3H]GABA addition and measured after 4 mins by liquid scintillation counting method relative to control; format: cell-based
T3 sequence (whole entry): T2 sequence (P31650 whole entry)

SMILES: COc1ccc(C(C#CCN2CCCC(C(=O)O)C2)(c2ccc(OC)cc2)c2ccc(OC)cc2)cc1 (racemic)
- pIC50 [1]: 4.61
- pIC50 [2]: 4.36

SMILES: O=C(O)C1CCCN(C/C=C\CC(c2ccccc2)(c2ccccc2)c2ccccc2)C1 (racemic)
- Ki [3]: 0.513 µM
- IC50 [4]: 1 µM
- IC50 [5]: 15.1 µM
- activity at 100 µM [6]: 56%
- activity at 100 µM [7]: 70%

SMILES: COc1ccc(C(/C=C\CN2CCCC(C(=O)O)C2)c2ccc(OC)cc2)cc1 (racemic)
- Ki [3]: 26.3 µM
- activity at 100 µM [8]: 62%
- IC50 [5]: 49 µM
- activity at 100 µM [6]: 72%
- activity at 100 µM [7]: 68%

SMILES: COc1ccc(CC(/C=C\CN2CCCC(C(=O)O)C2)(c2ccc(OC)cc2)c2ccc(OC)cc2)cc1 (racemic)
- Ki [3]: 25.7 µM
- IC50 [4]: 74.1 µM
- IC50 [5]: 57.5 µM
- activity at 100 µM [7]: 65%

SMILES: COc1ccc(C(/C=C\CN2CCCC(C(=O)O)C2)(c2ccc(OC)cc2)c2nccs2)cc1 (racemic)
- activity at 100 µM [9]: 78%
- activity at 100 µM [8]: 69%
- Activity [10]: 83%
- activity at 100 µM [6]: 78%
- activity at 100 µM [7]: 67%

SMILES: COc1ccc(C(/C=C\CCN2CCCC(C(=O)O)C2)(c2ccc(OC)cc2)c2ccc(OC)cc2)cc1 (racemic)
- Ki [3]: 23.4 µM
- IC50 [4]: 30.9 µM
- IC50 [5]: 16.2 µM
- activity at 100 µM [7]: 63%

SMILES: COc1ccc(C(/C=C\CN2CCCC(C(=O)O)C2)(c2ccc(OC)cc2)c2ccc(OC)cc2)cc1 (racemic)
- Ki [3]: 17.8 µM

SMILES: COc1ccc(C(/C=C\CN2CCCC(C(=O)O)C2)(Cc2ccccc2)c2ccc(OC)cc2)cc1 (racemic)
- Ki [3]: 41.7 µM
- IC50 [4]: 38 µM
- IC50 [5]: 63.1 µM
- activity at 100 µM [6]: 57%

SMILES: O=C(O)C1CCCN(CC/C=C\C(c2ccccc2)(c2ccccc2)c2ccccc2)C1 (racemic)
- Ki [3]: 7.41 µM
- IC50 [4]: 40.7 µM
- IC50 [5]: 17.4 µM

SMILES: COc1ccc(C(/C=C\CN2CCCC(C(=O)O)C2)(c2ccc(OC)cc2)c2ccsc2)cc1 (racemic)
- activity at 100 µM [9]: 62%
- IC50 [4]: 79.4 µM
- IC50 [5]: 33.1 µM
- activity at 100 µM [6]: 49%

SMILES: COc1ccc(C(/C=C\CN2CCCC(C(=O)O)C2)(c2ccc(OC)cc2)c2ccc3c(c2)OCO3)cc1 (racemic)
- Ki [3]: 53.7 µM
- IC50 [4]: 95.5 µM
- IC50 [5]: 10 µM

SMILES: COc1ccc(C(C/C=C\CN2CCCC(C(=O)O)C2)(c2ccc(OC)cc2)c2ccc(OC)cc2)cc1 (racemic)
- Ki [3]: 24 µM
- IC50 [4]: 41.7 µM
- IC50 [5]: 61.7 µM
- activity at 100 µM [7]: 52%

SMILES: COc1ccc(C(O)(/C=C\CN2CCCC(C(=O)O)C2)c2ccc(OC)cc2)cc1 (racemic)
- activity at 100 µM [9]: 53%
- activity at 100 µM [8]: 81%
- Activity [10]: 80%
- activity at 100 µM [6]: 97%
- activity at 100 µM [7]: 85%
